# Reference: patent US20120214818A1, “METHODS OF TREATING DIASTOLIC DYSFUNCTION AND RELATED CONDITIONS” (THE BOARD OF TRUSTEES OF THE UNIVERSITY OF ILLINOIS, priority 2009, published 2012)
# System: isolated ventricular cardiomyocytes from DOCA-salt and sham mice
# Experiment: Cell shortening (sarcomere shortening and relengthening) of isolated cardiomyocytes
# Assay type: cell-based, mouse
# Conditions: for relaxation τ (relaxation time constant): 10 μmol/L ranolazine 10 min
# Experimental: Myocyte isolation: Cardiac ventricular myocytes were isolated from the hearts of DOCA-salt or age matched controls mice 14-18 d post-operatively using a modified enzymatic digestion protocol from the Alliance for Cellular Signaling as previously described.^20 Cell shortening and calcium transient measurements: The mechanical properties of the cardiomyocytes were assessed using an IonOptix Myocam System (Ionoptix Inc., Milton, Mass.). Unloaded cardiomyocytes were placed on a glass slide and allowed to adhere for 10 min. Cardiomyocytes were then imaged with an inverted microscope and perfused with a Tyrode's buffer containing 1.2 mmol/L calcium at room temperature. Cardiomyocytes were paced at 0.5 Hz for 10 ms duration, and sarcomere shortening and relengthening were assessed using the following indices: peak fractional shortening (FS), time to 90% peak shortening, and τ, the relaxation time constant (a0+[…]^t/τ, t=time). Cardiomyocytes were treated with 10 μmol/L ranolazine for 10 min prior to evaluation. For calcium transient measurements, cardiomyocytes were loaded with 1 μmol/L Fura 2-AM for 10 min at room temperature, and fluorescence measurements were recorded with a dual-excitation fluorescence photomultiplier system (IonOptix). After loading, the cells were washed and resuspended in normal Tyrode solution. The cardiomyocytes were placed then in the cell chamber, stimulated at 0.5 Hz for 10 ms duration, and imaged through a Fluor×40 objective lens. Cells were exposed to light emitted by a 75-W Xenon lamp and passed though either a 340- or 380-nm wavelength filter. The emitted fluorescence was detected at 510 nm. To take into account any inference from background fluorescence, the background fluorescence for each cardiomyocyte was determined by moving the cardiomyocyte out of the view and recording the fluorescence from the bath solution alone. The mechanical properties of the cardiomyocytes were assessed using an IonOptix Myocam System (Ionoptix Inc., Milton, Mass.). Unloaded cardiomyocytes were placed on a glass slide and allowed to adhere for 10 min at 37° C. Cardiomyocytes were then imaged with an inverted microscope and perfused with a Tyrode's buffer containing 1.2 mmol/L calcium at room temperature. Cardiomyocytes were paced at 0.5, 1, or 2 Hz for 10 ms duration, and sarcomere shortening and relengthening were assessed using the following indices: peak fractional shortening (FS), time to 90% peak shortening, and τ, the relaxation time constant (a0+[…]^t/τ, t=time). Cardiomyocytes were treated with 10 μmol/L ranolazine for 10 min prior to evaluation. […] For calcium transient measurements, cardiomyocytes were loaded with 1 μmol/L fura 2-AM for 10 min at 37° C., and fluorescence measurements were recorded with a dual-excitation fluorescence photomultiplier system (IonOptix). After loading, the cells were washed and resuspended in normal Tyrode solution. The cardiomyocytes were placed then in the cell chamber, stimulated at 0.5, 1, or 2 Hz for 10 ms duration, and imaged through a Fluor×40 objective lens. Cells were exposed to light emitted by a 75-W Xenon lamp and passed though either a 340- or 380-nm wavelength filter. The emitted fluorescence was detected at 510 nm. To take into account any interference, the background fluorescence for each cardiomyocyte was determined by moving the cardiomyocyte out of the view and recording the fluorescence from the bath solution alone. Myocyte isolation: Cardiac ventricular myocytes were isolated from the hearts of DOCA-salt or age matched controls mice 14-18 d post-operatively using a modified enzymatic digestion protocol from the Alliance for Cellular Signaling as previously described (Silberman et al., Circulation 121: 519-528 (2010)).
# [1] = DOCA-salt cardiomyocytes paced at 1 Hz and 2 Hz (FIG. 14)
smiles,measurement,setting,value
COc1ccccc1OCC(O)CN1CCN(CC(=O)Nc2c(C)cccc2C)CC1 (stereo not drawn) [ranolazine],relaxation time (τ) at 1 and 2 Hz pacing,[1],improved relaxations times at both frequencies
same,sarcomere length at 1 and 2 Hz pacing,[1],lengthened sarcomere length at both frequencies
same,relaxation τ (relaxation time constant),"DOCA-salt cardiomyocytes, 0.5 Hz, 37° C. (Example 7)",0.13 ± 0.01 s
same,relaxation τ (relaxation time constant),"DOCA-salt cardiomyocytes, paced 0.5 Hz, room temperature (Example 3)",0.08 ± 0.01 s
same,resting (baseline) sarcomere length,"DOCA-salt cardiomyocytes, 10 μmol/L ranolazine (Example 6)",1.81±0.01 μm
same,resting (baseline) sarcomere length,"DOCA-salt cardiomyocytes, 10 μmol/L ranolazine, 37° C. (Example 7)",1.81±0.01 μm
same,"contraction (fractional shortening, time to 90% peak contraction)","sham and DOCA-salt cardiomyocytes, 10 μmol/L ranolazine",did not affect contraction
same,relaxation τ (relaxation time constant),"sham cardiomyocytes, 0.5 Hz, 37° C. (Example 7)",0.09 ± 0.02 s
same,relaxation τ (relaxation time constant),"sham cardiomyocytes, paced 0.5 Hz, room temperature (Example 3)",0.07 ± 0.01 s
same,resting (baseline) sarcomere length,"sham cardiomyocytes, 10 μmol/L ranolazine (Example 6)",1.82±0.01 μm
same,resting (baseline) sarcomere length,"sham cardiomyocytes, 10 μmol/L ranolazine, 37° C. (Example 7)",1.86±0.02 μm
same,reversibility of the effect on relaxation and sarcomere length,washout,reversible upon washout
